Values of other authors as cited in patent EP4729530A1, “NOVEL PEPTIDE AND USE THEREOF” (Gemvax & Kael Co., Ltd., priority 2023, dated 2024).

Experiments:
tau = tau (Homo sapiens, UniProt P10636); conditions: read-out: tau aggregation inhibition range (EC50); cited from earlier work
[1] = read-out: cytotoxicity (GI50); cited from earlier work

Chain of tau (P10636 whole entry): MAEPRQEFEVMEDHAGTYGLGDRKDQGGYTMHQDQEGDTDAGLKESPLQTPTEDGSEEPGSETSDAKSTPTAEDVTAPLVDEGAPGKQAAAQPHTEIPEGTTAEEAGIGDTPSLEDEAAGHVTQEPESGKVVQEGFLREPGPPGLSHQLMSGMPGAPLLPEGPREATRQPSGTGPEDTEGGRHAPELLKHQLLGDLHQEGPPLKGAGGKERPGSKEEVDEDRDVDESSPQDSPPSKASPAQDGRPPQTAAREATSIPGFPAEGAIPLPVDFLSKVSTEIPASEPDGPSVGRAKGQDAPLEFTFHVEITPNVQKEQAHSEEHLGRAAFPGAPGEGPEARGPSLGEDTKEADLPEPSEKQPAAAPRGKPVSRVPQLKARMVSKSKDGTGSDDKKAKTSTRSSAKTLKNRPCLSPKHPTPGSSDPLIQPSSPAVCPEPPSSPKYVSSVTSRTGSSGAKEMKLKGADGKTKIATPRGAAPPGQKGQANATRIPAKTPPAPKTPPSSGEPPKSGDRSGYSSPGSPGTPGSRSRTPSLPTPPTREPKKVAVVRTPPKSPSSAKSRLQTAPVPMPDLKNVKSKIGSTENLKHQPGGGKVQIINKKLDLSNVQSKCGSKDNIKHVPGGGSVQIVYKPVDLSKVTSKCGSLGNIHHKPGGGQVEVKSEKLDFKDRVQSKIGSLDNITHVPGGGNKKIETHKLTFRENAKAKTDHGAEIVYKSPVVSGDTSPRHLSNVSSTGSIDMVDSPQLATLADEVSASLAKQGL

Q: With `CN(C)c1ccc2c(c1)Sc1cc(N(C)C)ccc1N2` [LMTM] as the compound, how does the EC50 (tau) read?
A: 2200 ± 200 nM

Q: What about the GI50 [1] of the same compound?
A: 6.4 ± 0.3 µM
